In patent US9334249B2, “Inhibitors of cytomegalovirus” (Boehringer Ingelheim International GmbH, priority 2012, dated 2016):

Assays:
Format in all cases: cell-based, Human Cytomegalovirus
HCMV AD169 virus [1] = test: HCMV AD169 CPE assay (MTS dye reduction, MRC-5 cells); conditions: Human betaherpesvirus 5, AD169, MRC5, 216 h, 9 days, read-out: EC50 (nM) Example A
Procedure: HCMV AD169 CPE Assay This assay format is a CPE (Cytopathic effect)-based assay that determines the ability of compounds to protect cells against infection with a dye reduction assay (MTS of CellTiter 96® AQueous Non-Radioactive Cell Proliferation Assay from Promega). The conversion of MTS into aqueous, soluble formazan is performed by dehydrogenase enzymes found in metabolically active cells. The quantity of formazan product determined by absorbance at 490 nm is directly proportional to the number of living cells in culture. [table] Serial dilutions of the DMSO stock compound solution are performed using DMSO in columns 2-11 and 14-23. DMSO alone is present in columns 1, 12, 13 and 24. Four μL of the DMSO serial dilutions is obtained and diluted using 96 μL of D-MEM 5% FBS culture medium to obtain 4% DMSO (7×). To perform the assay, 10 μL of the freshly prepared 4% DMSO serial dilution plate is added to the assay plate containing 40 μL of MRC-5 cells plated the day before (10000 cells per well). Twenty μL of diluted virus is added to columns 2-12 and 14-24 and only D-MEM 5% FBS medium to uninfected control (columns 1 and 13) for a final DMSO concentration of 0.6%. The virus dilution is based on the amount of virus required to obtain a Signal-to-Background of 3-4 (generally between 0.1 and 1 μL of virus stock per well or MOI=0.05). The assay plates are incubated at 37° C. with 5% CO2 for 9 days in order to obtain 100% CPE in infected control without compound (columns 12 and 24). Ten μL of freshly mixed room temperature MTS/PMS (1:20 v/v) is added and the plates are incubated at 37° C. with 5% CO2 for 4-5 h (until signal saturation at 2.3 in the 100% CPE control). The plates are sealed with TopSeal for biosafety and read on the Envision plate reader (Perkin-Elmer) or equivalent at OD 492 nm.

[2] = system: HCMV AD169-Bac-Luc2 US2-US6 clone #26 virus; test: HCMV AD169-Bac luciferase assay (MRC-5 cells); conditions: Human betaherpesvirus 5, AD169, MRC5, 72 h, read-out: EC50 (nM) Example B
Description: HCMV AD169-Bac Luciferase Assay
This assay format is a luciferase reporter-based assay that determines the ability of compounds to inhibit the infection by detecting a luciferase signal decrease following the addition of BIGlo substrate (preparation indicated below) directly in the culture media. Mono-oxygenation of luciferin is catalyzed by luciferase in the presence of Mg2+, ATP and molecular oxygen. The generation of oxyluciferin is a luminescent reaction that can be detected with the proper platereader. Human Cytomegalovirus AD169-Bac is obtained from Dr. Thomas Shenk at Princeton University (reference paper Yu et al. 2002—J. Virol. 76 (5):2316-2328, herein incorporated by reference) and modified by recombineering to introduce a humanized firefly luciferase gene (Luc2) at the US2-US6 position in the HCMV genome. The virus is expanded in MRC-5 cells.
Serial dilutions of the DMSO stock compound solution are performed using DMSO in columns 2-11 and 14-23. DMSO alone is present in columns 1, 12, 13 and 24. Four μL of the DMSO serial dilutions is obtained and diluted using 96 μL of D-MEM 5% FBS culture medium to obtain 4% DMSO (7×).
To perform the assay, 7 μL of the freshly prepared 4% DMSO serial dilution plate is added to the assay plate containing 25 μL of MRC-5 cells plated the day before (10000 cells per well). Seventeen μL of diluted virus is added to columns 2-12 and 14-24 and only D-MEM 5% FBS medium to uninfected control (columns 1 and 13) for a final DMSO concentration of 0.6%. The virus dilution is based on the amount of virus required to obtain the highest luciferase signal possible without CPE (generally between 0.05 and 1 μL of virus stock per well or MOI=0.02). The assay plates are incubated at 37° C. with 5% CO2 for 3 days. Fifteen μL of room temperature BIGlo buffer is added to room temperature assay plates also incubated at room temperature for 15 minutes. The plates are sealed with TopSeal for biosafety and the luminescence signal is read on the TopCount plate reader (Perkin-Elmer) or equivalent.

HCMV AD169 virus [3] = test: HCMV AD169 qPCR 96-well assay (viral DNA replication, MRC-5 cells); conditions: Human betaherpesvirus 5, AD169, MRC5, 72 h, qPCR of viral DNA, 3 days, read-out: EC50 (nM) Example C
Procedure: HCMV AD169 qPCR 96-Well Assay
The hCMV quantitative PCR (qPCR) assay evaluates the ability of a compound to inhibit, directly or indirectly, the replication of hCMV viral DNA during the first 72 h following the infection. Compounds that inhibit either entry or the hCMV polymerase are active in this assay. Compounds are tested in the qPCR assay in 96-well plates, using a 9-point dose-response with 8 compounds for each 96-well plate. The assay was adapted from the method described by Schnepf et al., Rapid determination of antiviral drug susceptibility of human cytomegalovirus by real-time PCR, Antiviral Research 81 (2009) 64-67. […]

| Compound | EC50 (HCMV AD169 virus [1]) [nM] | EC50 [2] [nM] | EC50 (HCMV AD169 virus [3]) [nM] |
| --- | --- | --- | --- |
| O=C(Cc1cccc(C(F)(F)F)c1)Nc1ccc(NC(=O)c2cscn2)nc1 [Compound 1027] | 2800 |  |  |
| O=C(Cc1ccc(NC(=O)c2cscn2)nc1)Nc1cc(C(F)(F)F)cc(C(F)(F)F)c1 [Compound 1131] | 1520 | 143 | 220 |
| O=C(Cn1ccc(NC(=O)c2cscn2)cc1=O)Nc1cccc(C(F)(F)F)c1 [Compound 1148] |  | 658 |  |
| O=C(Cc1ccc(NC(=O)c2cscn2)cn1)Nc1cc(C(F)(F)F)cc(C(F)(F)F)c1 [Compound 1143] | 555 | 51 |  |
| O=C(Cc1cccc(C(F)(F)F)c1)Nc1ccc2nc(NC(=O)c3cscn3)sc2c1 [Compound 1158] | 250 | 45 | 180 |
| O=C(Cc1ccc(NC(=O)c2cscn2)cc1)Nc1cc(C(F)(F)F)cc(C(F)(F)F)c1 [Compound 1122] | 142 | 110 |  |
| N#Cc1cccc(CC(=O)Nc2nc3ccc(NC(=O)c4cscn4)cc3s2)c1 [Compound 1098] |  | 74 |  |
| CC(C(=O)Nc1nc2ccc(NC(=O)c3cscn3)cc2n1C)c1cccc(Cl)c1 (stereo not shown) [Compound 1137] | 1700 | 1600 |  |
| CC(C(=O)Nc1nc2ccc(NC(=O)c3cscn3)cc2[nH]1)c1cccc(Cl)c1 (stereo not shown) [Compound 1037] |  | 69 |  |
